Results on nine compounds are retold here after patent US20240315989A1 (priority 2021, published 2024).

The subject of data set [1] is severe COVID-19. Nature of the data set: AP-HP observational multicenter study: FIASMA medication use and intubation or death in severe COVID-19. It counts as in vivo, human. Conditions: for Number of events/Number of patients N/N: each FIASMA class and molecule at baseline, severe COVID-19 (N = 2,846); for Number of events/Number of patients (%): each FIASMA class and molecule; for Univariate Cox regression in 1:2 ratio matched analytic samples HR: vs matched control groups. The procedure:
COVID-19 was ascertained by a positive reverse-transcriptase-polymerase-chain-reaction (RT-PCR) test on nasopharyngeal or oropharyngeal swab specimens. Severe COVID-19 was defined as having at least one of the following criteria at hospital admission: respiratory rate >24 breaths/min or <12 breaths/min, resting peripheral capillary oxygen saturation in ambient air <90%, temperature >40° C., systolic blood pressure <100 mm Hg, or high lactate levels >2 mmol/L.^22
AP-HP Health Data Warehouse (‘Entrepôt de Données de Santé (EDS)’) contains all available clinical data on all inpatient visits for COVID-19 to 36 Greater Paris university hospitals. The data included patient demographic characteristics, vital signs, laboratory tests, and RT-PCR test results, medication administration data during the hospitalization for COVID-19, current diagnoses, discharge disposition, ventilator use data, and death certificates.
We obtained the following data for each patient at the time of the hospitalization: sex; age, which was categorized into four classes based on the OpenSAFELY study results^23 (i.e., 18-50, 51-70, 71-80, and 81+); hospital, which was categorized into four classes following the administrative clustering of AP-HP hospitals in Paris and its suburbs based on their geographical location (i.e., AP-HP Centre—Paris University, Henri Mondor University Hospitals and at home hospitalization; AP-HP Nord and Hôpitaux Universitaires Paris Seine-Saint-Denis; AP-HP Paris Saclay University; and AP-HP Sorbonne University); obesity, which was defined as having a body mass index higher than 30 kg/m^2 or an International Statistical Classification of Diseases and Related Health Problems (ICD-10) diagnosis code for obesity (E66.0, E66.1, E66.2, E66.8, and E66.9); self-reported current smoking status; and any medication prescribed according to compassionate use or as part of a clinical trial (e.g., hydroxychloroquine, azithromycin, remdesivir, tocilizumab, sarilumab, or dexamethasone). To take into account possible confounding by indication bias for FIASMA medications, we recorded whether patients had any current diagnosis, based on ICD-10 diagnosis codes recorded during the visit, of neoplasms and diseases of the blood (C00-D89); mental disorders (F01-F99); diseases of the nervous system (G00-G99); cardiovascular disorders (I00-I99); respiratory disorders (J00-J99); digestive disorders (K00-K95); dermatological disorders (L00-L99); diseases of the musculoskeletal system (M00-M99); diseases of the genitourinary system (N00-N99); endocrine disorders (E00-E89); and eye-ear-nose-throat disorders (H00-H95).
FIASMA medication use was defined as receiving at least one FIASMA medication within the first 24 hours of hospital admission. To minimize potential confounding effects of late prescription of FIASMA medications, patients who initiated an FIASMA medication more than 24 hours after hospital admission were excluded from the analyses. Patients who received at study baseline an antipsychotic or a benzodiazepine while being hospitalized in an intensive care unit, possibly as an aid to oral intubation, were also excluded.
Study baseline was defined as the date of hospital admission for COVID-19. The primary end point was the occurrence of intubation and/or death. For patients who died after intubation, the timing of the primary end point was defined as the time of intubation.
We calculated frequencies of all baseline characteristics described above in patients receiving or not receiving an FIASMA medication and compared them using standardized mean differences (SMD). SMD are useful to evaluate between-group differences in baseline characteristic variables independently of their unit of measurement (i.e., for both continuous and categorical variables^26-28). We considered SMD greater than 0.1 as reflecting significant differences, a threshold recommended for declaring imbalance.^27

Data set [2] has as its target T1, σ1 site (Homo sapiens, UniProt Q99720). Conditions: cited from earlier work.
The test system of data set [3] is SARS-CoV-2 infection. Nature of the data set: Retrospective cohort (BJC Healthcare): antidepressant exposure and ED or hospital encounter within 30 days. The note with it: for ED or hospital encounter within 30 days, %: share of exposed outpatients with an encounter after a positive SARS-CoV-2 test; for Unadjusted Odds Ratio, ED or hospital encounter within 30 days / Adjusted Odds Ratio, ED or hospital encounter within 30 days: vs No Antidepressant (Ref); for Unadjusted Odds Ratio, ED or hospital encounter within 30 days: logistic regression; for Adjusted Odds Ratio, ED or hospital encounter within 30 days: multivariable logistic regression, complete cases. It is filed as in vivo, human.

The subject of data set [4] is pp-VSV-SARS-CoV-2 spike. The note with it: cited from earlier work.
In data set [5] the test system is SARS-CoV-2. Conditions: cited from earlier work.
Data set [6] has as its target T1, σ1 site. Conditions: read-out: Affinity for σ1 Site (Ki or KD values); cited from earlier work.
For data set [7], the system named is SARS-CoV-2. Conditions: A549-ACE2; cited from earlier work.
Data set [8] has as its system COVID-19. The note with it: p<0.05; cited from earlier work.
Data set [9] relates to SARS-CoV-2. Conditions: cited from earlier work. This is another data set of the same source.
The target of data set [10] is sigma-1 receptors (Rattus norvegicus, UniProt Q9R0C9). The note with it: cited from earlier work.
For data set [11] the following is noted: one-compartment model; cited from earlier work.
Where [12] appears, read: vs no FIASMA medication, Table 33.
Where [13] appears, read: paracetamol group matched to FIASMA respiratory system medication, Table 34.

pKi: −log10 of the molar value. Where two headings read alike, the source gives them in different places.

T1 sequence (Q99720 whole entry): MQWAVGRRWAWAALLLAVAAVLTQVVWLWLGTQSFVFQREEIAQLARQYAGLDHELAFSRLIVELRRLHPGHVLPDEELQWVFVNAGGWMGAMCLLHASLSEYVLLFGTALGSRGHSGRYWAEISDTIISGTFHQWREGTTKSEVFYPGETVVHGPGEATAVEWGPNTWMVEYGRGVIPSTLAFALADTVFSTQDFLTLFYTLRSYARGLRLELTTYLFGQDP
sigma-1 receptors, sequence (Q9R0C9 whole entry): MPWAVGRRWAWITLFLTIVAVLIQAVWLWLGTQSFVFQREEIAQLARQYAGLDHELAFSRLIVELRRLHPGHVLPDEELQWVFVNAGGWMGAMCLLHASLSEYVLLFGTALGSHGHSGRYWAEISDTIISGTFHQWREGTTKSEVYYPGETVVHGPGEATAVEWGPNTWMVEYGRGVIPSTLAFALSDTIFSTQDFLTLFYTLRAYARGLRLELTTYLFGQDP

On to `CN(C)C(=O)C(CCN1CCC(O)(c2ccc(Cl)cc2)CC1)(c1ccccc1)c1ccccc1` [Loperamide], for which, in data set [1] (Table 33), the “Number of events/Number of patients N/N” value is 2/9, the “Number of events/Number of patients (%)” value is “(22.2) %” and the “Univariate Cox regression in 1:2 ratio matched analytic samples HR” value was found to be 0.24. Moreover, in [1] (setting [12]), the “Analysis weighted by inverse-probability-weighting weights HR” value was found to be 0.15, the “Crude Cox regression analysis HR” value was 0.39 and the “Multivariable Cox regression analysis HR” value is reported as 0.25.
`CN[C@H]1CC[C@@H](c2ccc(Cl)c(Cl)c2)c2ccccc21` [sertraline]: the “Function on σ1 Site” value in [2] is “Agonist”. Further, in data set [3], the “ED or hospital encounter within 30 days, %” value came out at 17.9%. Further, in [1] (Table 33), the “Number of events/Number of patients N/N” value is recorded as 7/21 and the “Number of events/Number of patients (%)” value was “(33.3) %”. In addition, in [1] (setting [12]), the “Analysis weighted by inverse-probability-weighting weights adjusted for unbalanced covariates HR” value was 0.82, the “Crude Cox regression analysis HR” value was determined as 0.58 and the “Multivariable Cox regression analysis HR” value is 0.67.
`CN(C)CCC=C1c2ccccc2CCc2ccccc21` [amitriptyline]: in [3], the “ED or hospital encounter within 30 days, %” value was determined as 23.6%; the “Unadjusted Odds Ratio, ED or hospital encounter within 30 days” value is 2.90; the “Adjusted Odds Ratio, ED or hospital encounter within 30 days” value was determined as 1.09. For the same compound, the “Infection with pp-VSV-SARS-CoV-2 spike” value in [4] (freshly isolated nasal epithelial cells of volunteers treated with a low dose) was “prevented infection”. Moreover, the “Infection with SARS-CoV-2” value in data set [5] (human Caco-2 cells) was “prevented infection”.
Consider `CC(=O)Nc1ccc(O)cc1` [Paracetamol], for which, in data set [1] (setting [13]), the “Number of events/Number of patients in the matched groups (%)” value is “(21.4) %” and the “Number of events/Number of patients in the matched groups N/N” value is listed as 3/14. Further, in data set [1] (paracetamol group matched to other FIASMA cardiovascular system medications, Table 34), the “Number of events/Number of patients in the matched groups (%)” value is listed as “(48.5) %”.
One may read the pKi as the negative decadic logarithm of the Ki, by convention in mol/L. As for `COc1ccc2c(c1)[C@]13CCCC[C@@H]1[C@H](C2)N(C)CC3` [Dextromethorphan], in [2], the “Function on σ1 Site” value is recorded as “Agonist”. In data set [6], the pKi was above 6.30. For the same compound, in data set [7], the SARS-CoV-2 viral replication entry is given as “increase viral replication”.
Consider `OCCOCCN1CCN(C(c2ccccc2)c2ccc(Cl)cc2)CC1` (stereo not drawn) [Hydroxyzine], for which the “Number of events/Number of patients N/N” value in data set [1] (Table 33) is recorded as 11/31.
In the case of `CN(C)CCC[C@@]1(c2ccc(F)cc2)OCc2cc(C#N)ccc21` [escitalopram], in data set [3], the “ED or hospital encounter within 30 days, %” value was determined as 16.2%. Further, the “Risk of intubation or death because of COVID-19” value in data set [8] is listed as “lower risk of intubation or death”. In [4] (Vero cells), the “Infection with pp-VSV-SARS-CoV-2 spike” value was “prevent infection”. Further, in data set [9], the “Inhibiting SARS-CoV-2 replication at a concentration of” value is “at a concentration of 0.8 μg/ml”.
On to `Fc1ccc([C@@H]2CCNC[C@H]2COc2ccc3c(c2)OCO3)cc1` [paroxetine], for which the pKi in data set [10] was 5.69. Further, in [3], the “ED or hospital encounter within 30 days, %” value amounted to 15.1%; the “Unadjusted Odds Ratio, ED or hospital encounter within 30 days” value is given as 1.67; the “Adjusted Odds Ratio, ED or hospital encounter within 30 days” value stood at 0.64. Besides, in data set [1] (Table 33), the “Univariate Cox regression in 1:2 ratio matched analytic samples HR” value stood at 0.54. In data set [1] (setting [12]), the “Analysis weighted by inverse-probability-weighting weights HR” value came to 0.57 and the “Crude Cox regression analysis HR” value amounted to 0.69.
Consider `CNCCC(Oc1ccc(C(F)(F)F)cc1)c1ccccc1` (stereo not drawn) [fluoxetine], for which, in [11], the “volume of distribution [V/F]” value is listed as 690 L. In addition, the “Function on σ1 Site” value in data set [2] is “Agonist”. In data set [3], the “ED or hospital encounter within 30 days, %” value worked out at 16.2%. In addition, the “Risk of intubation or death because of COVID-19” value in [8] is “lower risk of intubation or death”. Moreover, the “Infection with pp-VSV-SARS-CoV-2 spike” value in data set [4] (Vero cells) is listed as “prevent infection”. In addition, in data set [5] (Vero-E6 cell lines), the “Entry and propagation of SARS-CoV-2” value was “efficiently inhibit entry and propagation”.
